Results taken from ChEMBL document CHEMBL4428124, “Advances in rationally designed dual inhibitors of HIV-1 reverse transcriptase and integrase” (Bioorg Med Chem, 2016).

Columns and labels:
[1] = molecular target: Human immunodeficiency virus type 1 reverse transcriptase (Human immunodeficiency virus 1, UniProt Q72547); assay: Inhibition of recombinant HIV1 RT
[2] = tested on: Human immunodeficiency virus 1; assay: Antiviral activity against HIV1; format: functional, organism-based

Structure (SMILES)	IC50 [1]	EC50 [2]
O=c1[nH]c(SCc2ccccc2)nc(C(O)c2ccccc2)c1O (centres undefined)	> 200 µM	36.5 µM
O=C(c1ccc(Cl)cc1)c1nc(SCc2ccccc2)[nH]c(=O)c1O	113 µM	164 µM
O=C(c1ccc(Br)cc1)c1nc(SCc2ccccc2)[nH]c(=O)c1O	> 200 µM	175 µM
O=C(c1ccccc1)c1nc(SCc2ccccc2)[nH]c(=O)c1O	95.1 µM	36 µM
CC(C)Nc1cccnc1N1CCN(C(=O)c2cc3cc(NS(C)(=O)=O)ccc3[nH]2)CC1 [DELAVIRDINE]	–	0.021 µM
